The text below walks through data of PMC6367500, “18β-glycyrrhetyl-3-O-sulfate would be a causative agent of licorice-induced pseudoaldosteronism” (Scientific Reports, 2019).

Data set [1] has as its target T1, rat type 2 11β-hydroxysteroid dehydrogenase (11β-HSD2) (Rattus norvegicus, UniProt P50233).
T1 construct: each compound were mixed with the rat kidney microsome fraction, and incubated at 37 °C for 30 min; from tissue; host or cells: rat kidney microsome fraction
T1 sequence (P50233 1-400): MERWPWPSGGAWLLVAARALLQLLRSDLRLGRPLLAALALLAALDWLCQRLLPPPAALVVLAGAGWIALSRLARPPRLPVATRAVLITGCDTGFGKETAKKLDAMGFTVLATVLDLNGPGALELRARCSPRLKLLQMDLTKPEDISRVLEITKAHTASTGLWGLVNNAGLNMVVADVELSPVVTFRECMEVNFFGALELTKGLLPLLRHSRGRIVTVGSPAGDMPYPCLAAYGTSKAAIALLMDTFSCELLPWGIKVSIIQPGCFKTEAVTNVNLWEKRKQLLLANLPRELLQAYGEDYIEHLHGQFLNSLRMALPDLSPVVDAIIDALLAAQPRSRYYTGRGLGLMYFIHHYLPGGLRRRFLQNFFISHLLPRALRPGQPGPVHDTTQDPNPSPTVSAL
Particulars: rat kidney microsome fraction; cited from earlier work.

Data set [2] addresses T1, rat type 2 11β-hydroxysteroid dehydrogenase (11β-HSD2). Description: Inhibition of 11β-HSD2 in rat kidney microsome fraction. It counts as biochemical. Particulars: for IC50: 37 °C, 30 min. On the procedure: Compounds 2 and 3 inhibited 11β-HSD2 in a rat kidney microsome fraction in a concentrations-dependent manner (Fig. 2).
Figure 2 Inhibitory effects of 2 and 3 on 11β-HSD2 using rat kidney microsome. [^3H] cortisone and each compound were mixed with the rat kidney microsome fraction, and incubated at 37 °C for 30 min. Then, the amount of [^3H] cortisol was measured. Data are expressed as mean ± S.E. (n = 4) of the percentage relative to the amount of [^3H] cortisol in the mixture without samples. **P < 0.01 and ***P < 0.001 compared with the groups without the samples by Dunnett’s multiple t-test for compounds 2 and 3, and by Student’s t-test for GA.
Assays were conducted as described by Diederich et al.[20] with slight modifications as described in our previous report.

For another data set, the target named is T2, OAT3 (Homo sapiens, UniProt Q8TCC7).
T2 construct: expressed in transfected cells; host or cells: MDCK II cells
T2 sequence (Q8TCC7 1-542): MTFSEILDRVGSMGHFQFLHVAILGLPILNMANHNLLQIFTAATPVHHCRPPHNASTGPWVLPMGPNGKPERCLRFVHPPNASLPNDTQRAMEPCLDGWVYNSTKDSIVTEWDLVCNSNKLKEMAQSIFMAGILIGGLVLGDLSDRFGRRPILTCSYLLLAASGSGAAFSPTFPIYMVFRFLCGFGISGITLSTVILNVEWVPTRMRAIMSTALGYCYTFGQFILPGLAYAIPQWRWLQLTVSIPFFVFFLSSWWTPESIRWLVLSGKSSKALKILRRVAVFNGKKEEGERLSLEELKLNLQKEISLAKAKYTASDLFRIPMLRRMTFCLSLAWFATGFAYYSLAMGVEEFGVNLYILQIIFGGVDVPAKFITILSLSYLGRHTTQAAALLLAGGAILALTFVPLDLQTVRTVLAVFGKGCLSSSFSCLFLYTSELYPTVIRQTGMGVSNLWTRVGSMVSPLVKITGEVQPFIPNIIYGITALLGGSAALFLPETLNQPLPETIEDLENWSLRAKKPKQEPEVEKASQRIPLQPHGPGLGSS
Description: Uptake into MDCK II cells stably expressing OAT3. It counts as cell-based. Particulars: pooled EHBR plasma, pH 5.5, 37 °C, 15 min. On the procedure: Kidneys were collected from normal SD rats, and the kidney slices were incubated with the plasma samples of EHBRs at 37 °C or 4 °C for 2 h (A–C). MDCK II cells stably expressing OAT1 or OAT3 were incubated with the plasma samples of EHBRs at 37 °C for 15 min (D–F). […] Data are expressed as mean ± S.E. (n = 3 for (C, D), and (E); n = 6 for (A, B), and F). *P < 0.05 and **P < 0.01 vs 4 °C group by Student’s t-test for (A–C), and vs mock cells by Dunnett’s multiple t-test for (D–F).
Uptake studies using rat kidney slices and cells stably expressing OAT1 and OAT3 were conducted with the same protocol as in our previous study.

Where two headings read alike, the source gives them in different places.

As to `CC1(C)[C@@H](O[C@@H]2O[C@H](C(=O)O)[C@@H](O)[C@H](O)[C@H]2O)CC[C@]2(C)[C@H]3C(=O)C=C4[C@@H]5C[C@@](C)(C(=O)O)CC[C@]5(C)CC[C@@]4(C)[C@]3(C)CC[C@@H]12` [3MGA, 3-monoglucuronyl glycyrrhetinic acid, reference compound], in data set [1], the 50% inhibitory concentration (IC50) (commonly the concentration at which inhibition is half-maximal) was 250 nM.
For `CC1(C)[C@@H](OS(=O)(=O)O)CC[C@]2(C)[C@H]3C(=O)C=C4[C@@H]5C[C@@](C)(C(=O)O[C@@H]6O[C@H](C(=O)O)[C@@H](O)[C@H](O)[C@H]6O)C[C@H](O)[C@]5(C)CC[C@@]4(C)[C@]3(C)CC[C@@H]12` [compound 1, 22α-hydroxy-18β-glycyrrhetyl-3-O-sulfate-30-glucuronide], the IC50 in data set [1] is 2000 nM.
As for `CC1(C)[C@@H](OS(=O)(=O)O)CC[C@]2(C)[C@H]3C(=O)C=C4[C@@H]5C[C@@](C)(C(=O)O)C[C@H](O)[C@]5(C)CC[C@@]4(C)[C@]3(C)CC[C@@H]12` [compound 2, 22α-hydroxy-18β-glycyrrhetyl-3-O-sulfate], in data set [2], the “inhibitory titer on 11β-HSD2 compared with GA” value was “slightly higher than that of GA” and it took 110 nM to reach half-maximal inhibition (IC50). Besides, the “uptake into cells expressing OAT3 compared with mock cells” value at OAT3 is given as “significantly higher”.
Consider `CC1(C)[C@@H](OS(=O)(=O)O)CC[C@]2(C)[C@H]3C(=O)C=C4[C@@H]5C[C@@](C)(C(=O)O)CC[C@]5(C)CC[C@@]4(C)[C@]3(C)CC[C@@H]12` [compound 3, 18β-glycyrrhetyl-3-O-sulfate], for which, in data set [2], the “inhibitory titer on 11β-HSD2 compared with GA” value is listed as “slightly higher than that of GA” and the IC50 turned out to be 100 nM. For the same compound, the “uptake into cells expressing OAT3 compared with mock cells” value at OAT3 is given as “significantly higher”.
